Measurements taken from EP1137632B1, “THIOUREA INHIBITORS OF HERPES VIRUSES” (Wyeth, priority 1998, dated 2000).
Values after ≈ are worked out from the molar mass of the structure shown. Like-named read-outs stand apart in the source and are kept apart here.

What was measured:
[1] = tested on: HCMV recombinant mutant virus; test: microbe, parasite or virus in culture; format: cell-based, human cytomegalovirus; conditions: Human betaherpesvirus 5, read-out: IC50 (ug/ml) HCMV
Description: Microtiter plate assay. Ninety-six well plate cultures of human foreskin fibroblasts are infected in the presence of inhibitor compound with a HCMV recombinant mutant virus whose genome contains the prokaryotic beta-glucuronidase gene (Jefferson, R. A., S. M. Burgess, and D. Hirsh. 1986. Beta-glucuronidase from Escherichia coli as a gene fusion marker. Proc. Natl. Acad. Sci. USA 83:8447-8451) whose expression is controlled by a viral promoter. An example of such a virus is RV145 (Jones, T. R., V. P. Muzithras, and Y. Gluzman. 1991. Replacement mutagenesis of the human cytomegalovirus genome: US10 and US11 gene products are nonessential. J. Virol. 65:5860-5872). Since it is under the control of a viral promoter, beta-glucuronidase expression is an indirect indicator of growth and replication of HCMV in this assay. At 96 hours post-infection, the infected cell lysates are prepared (using 50mM sodium phosphate [pH7.0] containing 0.1 % Triton X-100 and 0.1% sarkosyl) and assayed for beta-glucuronidase activity using a substrate for the enzyme which when cleaved yields either a product which can be measured colorimetrically in a spectrophotometer or fluorescently in a microfluorimeter. Examples of such substrates are p-nitrophenyl-beta-D-glucuronide and methylumbelliferylglucuronide, respectively. The presence of an antiviral compound is indicated by the reduced expression of the HCMV genome resident beta-glucuronidase gene, compared to the absence of inhibitor. […] Data from this assay generated using varying amounts of inhibitor compound is also used to estimate the IC50 of an inhibitor compound.

VZV strain Ellen = test: VZV antiviral (ELISA) assay in human foreskin fibroblast cells; format: cell-based, varicella-zoster virus
Experimental: VZV antiviral (ELISA) assay
For the generation of stock VZV to be used in the assay, VZV strain Ellen (ATCC #VR-1367) is used to infect human foreskin fibroblast (HFF) cells at low multiplicity (less than 0.1) and incubated overnight at 37°C in 5% CO2. After the overnight incubation, the mixture of uninfected and VZV-infected HFF infected cells are then harvested and added to each well of 96-well plates (3.5x10^4 cells in 100 µl DMEM supplemented with 2% FBS) which contain test compound or the reference standard drug control (in 100µl DMEM supplemented with 2% FBS per well). These cells are incubated for three days at 37°C in 5% CO2, then fixed for ELISA assay. The primary antibody is murine anti-VZV glycoprotein II monoclonal antibody (Applied Biosystems, Inc. #13-145-100) and the secondary antibody is goat anti-mouse IgG linked to β-galactosidase. Thus the extent of viral replication is determined by assessing β-galactosidase activity by quantifying the generation of the 4-methyl umbelliferone fluorescent cleavage product after addition of the methyl umbelliferyl-β-D-galactoside (Sigma #M1633) substrate on a microfluorimeter (365nm for excitation and 450nm for emission). Antiviral activity (IC50) of the test compound is determined by comparing the flourescence obtained in absence of compound to that obtained in the presence of compound.

HSV-1 = test: HSV antiviral (ELISA) assay in Vero cells; format: cell-based, herpes simplex virus type 1; conditions: read-out: IC50 (ug/ml) HSV
Experimental: HSV antiviral (ELISA) assay
Vero cells (ATCC #CCL-81) are plated on 96-well tissue culture plates at 3.5x10^4 cells per 100µl tissue culture DMEM (Dulbecco's modified Eagle media) supplemented with 2% fetal bovine serum (FBS) in each well. After overnight incubation @ 37°C (in 5% CO2) and 30 minutes prior to infection with HSV-1 (multiplicity of infection equal to 0.006), cells are either untreated, or treated with test compound (multiple concentrations) or reference standard drug control. After approximately 24 hours post-infection incubation @ 37°C (in 5% CO2), cells are fixed for ELISA assay. The primary antibody is murine anti-HSV glycoprotein D monoclonal primary antibody and the secondary antibody is goat anti-mouse IgG linked to β-galactosidase. Thus the extent of viral replication is determined by assessing β-galactosidase activity by quantifying the generation of the 4-methyl umbelliferone fluorescent cleavage product after addition of the methyl umbelliferyl-β-D-galactoside (Sigma #M1633) substrate on a microfluorimeter (365nm for excitation and 450nm for emission). Antiviral activity (IC50) of the test compound is determined by comparing the flourescence obtained in absence of compound to that obtained in the presence of compound.

[2] = Human alphaherpesvirus 3, Fibroblast; read-out: % inhibition 10 ug/ml VZV
[3] = Human alphaherpesvirus 3; VZV strain Ellen in HFF cells; read-out: IC50 (ug/ml) VZV
[4] = Human alphaherpesvirus 1, HSV-1 in Vero cells

SMILES	IC50 [1] [µg/mL]	inhibition at 10 µg/mL (VZV strain Ellen; [2]) [%]	IC50 (VZV strain Ellen; [3]) [µg/mL]	IC50 (HSV-1; [4]) [µg/mL]	inhibition at 10 µg/mL (VZV strain Ellen; Human alphaherpesvirus 3, Fibroblast, read-out: % inhibition 10 ug/ml VZV) [%]	IC50 (VZV strain Ellen; Human alphaherpesvirus 3, HFF, read-out: IC50 (ug/ml) VZV) [µg/mL]	IC50 (HSV-1; Human alphaherpesvirus 1, Vero) [µg/mL]
CC(=O)Nc1ccc(NC(=S)Nc2ccc(NC(=O)c3ccc4ccccc4c3O)c(Cl)c2)cc1 [Example 204, 1-Hydroxy-naphthalene-2-carboxylic acid {4-[3-(4-acetylamino-phenyl)-thioureido]-2-chloro-phenyl}-amide]	8 (≈ 15.8 µM)	41	> 10	4 (≈ 7.92 µM)			
COc1cc(OC)c(NC(=S)Nc2cc(OC)c(NC(=O)c3ccccc3F)cc2OC)cc1Cl [Example 260, N-{4-[3-(5-Chloro-2,4-dimethoxy-phenyl)-thioureido]-2,5-dimethoxy-phenyl}-2-fluoro-benzamide]	> 10				18	7 (≈ 13.5 µM)	> 10
COc1cc(OC)c(NC(=S)Nc2ccc(NC(=O)c3ccccc3F)c(C#N)c2)cc1Cl [Example 277, N-{4-[3-(5-Chloro-2,4-dimethoxy-phenyl)-thioureido]-2-cyano-phenyl}-2-fluoro-benzamide]	> 10	0	> 10	> 10			
COc1cc(OC)c(NC(=S)Nc2cc(OC)c(NC(=O)c3ccccc3F)cc2C)cc1Cl [Example 286, N-{4-[3-(5-Chloro-2,4-dimethoxy-phenyl)-thioureido]-2-methoxy-5-methyl-phenyl}-2-fluoro-benzamide]	40 (≈ 79.4 µM)	5	> 10	2 (≈ 3.97 µM)			
CC(NC(=S)Nc1ccc(NC(=O)c2ccccc2F)cc1C(F)(F)F)c1ccc(F)cc1 (centres unmarked) [Example 1102, 2-Fluoro-N-(4-{3-[1-(4-fluoro-phenyl)-ethyl]-thioureido}-3-trifluoromethyl-phenyl)-benzamide]	5 (≈ 10.4 µM)		> 7.5				
C[C@H](NC(=S)Nc1ccc(NC(=O)c2cc3ccccc3cn2)c(C(F)(F)F)c1)c1ccc(Br)cc1 [Example 1103, Isoquinline-3-carboxylic acid (4-{3-[(1S)-1-(4-bromo-phenyl)-ethyl]-thioureido}-2-trifluoromethyl-phenyl)-amide]	5 (≈ 8.72 µM)		0.12 (≈ 0.209 µM)				
C[C@H](NC(=S)Nc1ccc(NC(=O)c2ccccc2F)c(C#N)c1)c1ccc(Br)cc1 [Example 1104, N-(4-{3-[(1S)-1-(4-Bromo-phenyl)-ethyl]-thioureido}-2-cyano-phenyl)-2-fluoro-benzamide]	> 10		0.09 (≈ 0.181 µM)				
C[C@@H](NC(=S)Nc1ccc(NC(=O)c2ccccc2F)c(C#N)c1)c1ccc(Br)cc1 [Example 1105, N-(4-{3-[(1R)-1-(4-Bromo-phenyl)-ethyl]-thioureido}-2-cyano-phenyl)-2-fluoro-benzamide]	1.1 (≈ 2.21 µM)		> 7.5				
C[C@H](NC(=O)Nc1ccc(NC(=O)c2ccccc2F)c(C#N)c1)c1ccc(F)cc1 [Example 1106, N-{2-cyano-4-[({[(1S)-1-(4-fluorophenyl)ethyl]amino}carbonyl)amino]phenyl}-2-fluorobenzamide]	> 10		0.014 (≈ 0.0333 µM)				
Cc1cc(NC(=O)c2ccccc2F)ccc1NC(=O)N[C@H](C)c1ccc(F)cc1 [Example 1107, 2-fluoro-N-{4-[({[(1R)-1-(4-fluorophenyl)ethyl]amino}carbonyl)amino]-3-methylphenyl}benzamide]	> 10		0.04 (≈ 0.0977 µM)				
C[C@H](NC(=S)Nc1ccc(NC(=O)c2ccccc2F)c(C#N)c1)c1ccc(F)cc1 [Example 1108, N-{4-[({[(1S)-1-(4-fluorophenyl)ethyl]amino}carbothioyl)amino]-2-cyanophenyl)-2-fluorobenzamide]	> 10		0.03 (≈ 0.0687 µM)				
C[C@H](NC(=S)Nc1ccc(NC(=O)c2ccccc2F)c(C#N)c1)c1ccc(Cl)cc1 [Example 1109, N-{4-[({[(1S)-1-(4-chlorophenyl)ethyl]amino}carbothioyl)amino]-2-cyanophenyl}-2-fluorobenzamide]	> 10		0.07 (≈ 0.155 µM)				
